Like-named read-outs stand apart in the source and are kept apart here.
Experiments:
[1] = target: T1, human recombinant 5-HT2A receptor (Homo sapiens, UniProt P28223); assay: Test Example 1-2: 5-HT2A receptor binding inhibition test ([3H]-Ketanserin; non-specific ligand Ketanserin)
T1 construct: expressed in transfected cells; host or cells: Jump-In HEK cells (membrane preparation)
Procedure, shortened: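 Ki values were derived from dose-response inhibition of [3H]-ketanserin binding; nonspecific binding was set with 500 µmol/L ketanserin, and Kd was set for each membrane lot from Scatchard saturation plots. Incubation lasted 1.5 h at room temperature (25 °C). Bound radioligand was harvested on Tris-HCl (pH 7.4)-presoaked filters and counted.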

[2] = target: T2, human recombinant 5-HT2C receptor (Homo sapiens, UniProt P28335); assay: Test Example 2: 5-HT2C receptor binding inhibition test ([3H]-Mesulergine; non-specific ligand Serotonin HCl)
T2 construct: expressed in transfected cells; host or cells: Jump-In HEK cells (membrane preparation)
T2 sequence (P28335 33-458): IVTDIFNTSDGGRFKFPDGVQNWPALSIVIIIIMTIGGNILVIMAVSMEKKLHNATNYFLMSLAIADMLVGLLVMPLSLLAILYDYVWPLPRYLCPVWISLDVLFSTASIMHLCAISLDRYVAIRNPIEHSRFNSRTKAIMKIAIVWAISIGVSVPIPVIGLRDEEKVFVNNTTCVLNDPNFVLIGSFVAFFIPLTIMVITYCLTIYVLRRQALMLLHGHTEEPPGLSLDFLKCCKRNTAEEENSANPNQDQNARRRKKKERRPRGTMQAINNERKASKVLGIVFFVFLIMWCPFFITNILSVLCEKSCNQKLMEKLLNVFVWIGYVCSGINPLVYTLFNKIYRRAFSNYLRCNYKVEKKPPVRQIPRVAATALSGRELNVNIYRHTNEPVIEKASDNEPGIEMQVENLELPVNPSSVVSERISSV
Procedure, shortened: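 Ki values come from dose-response curves of [3H]-mesulergine displacement from human 5-HT2C membranes after 2 h at 37°C, scored by scintillation counting of filter-bound radioactivity. Serotonin HCl (500 µmol/L) set non-specific binding; Kd per membrane lot was taken from Scatchard plots.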

[3] = [3H]-Mesulergine, non-specific binding with 500 µmol/L Serotonin HCl, 37°C, 2 hours
[4] = [3H]-Ketanserin, non-specific binding with 500 µmol/L Ketanserin, room temperature (25°C), 1.5 hours, read-out: h 5-HT2A Ki
[5] = human serotonin 5-HT2C receptor binding activity

T1 sequence (P28223 whole entry): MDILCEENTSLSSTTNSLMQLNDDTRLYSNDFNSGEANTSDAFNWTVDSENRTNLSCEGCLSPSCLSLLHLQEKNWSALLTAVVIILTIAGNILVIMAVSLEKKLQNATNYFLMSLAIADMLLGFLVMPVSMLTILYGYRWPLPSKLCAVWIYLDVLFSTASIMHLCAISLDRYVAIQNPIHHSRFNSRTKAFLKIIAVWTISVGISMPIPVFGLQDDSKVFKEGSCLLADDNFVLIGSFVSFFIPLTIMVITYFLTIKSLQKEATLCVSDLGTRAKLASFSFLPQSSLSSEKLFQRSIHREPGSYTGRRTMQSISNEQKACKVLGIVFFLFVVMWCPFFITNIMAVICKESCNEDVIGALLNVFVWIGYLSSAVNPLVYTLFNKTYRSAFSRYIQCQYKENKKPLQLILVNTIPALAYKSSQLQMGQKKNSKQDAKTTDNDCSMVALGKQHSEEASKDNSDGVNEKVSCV

In the case of `Cn1ncc(Br)c1-c1cc(Nc2ncc(C(F)(F)F)cc2F)ccc1OCCO` [Compound I-006], the Ki [1] is reported as 0.253 nM and the Ki [2, 3] is reported as 0.223 nM.
`Cc1nc(COC2COC2)nc(C)c1-c1cc(Nc2ncc(C(F)(F)F)cc2Cl)ncc1OCCO` [Compound I-376] gave a Ki [1, 4] of 2.24 nM and a Ki [2, 5] of 2.74 nM.
`COCc1nc(C)c(-c2cc(Nc3ncc(OC(F)(F)F)cc3Cl)ncc2OCCO)c(C)n1` [Compound I-200] showed a Ki [1, 4] of 1.49 nM and a Ki [2, 5] of 1.9 nM.
Work on `Cc1nc(CO[C@@H]2CCOC2)nc(C)c1-c1cc(Nc2ncc(C(F)(F)F)cc2Cl)ncc1OCCO` [Compound I-378] yielded a Ki [1, 4] of 2.43 nM and a Ki [2, 5] of 1.51 nM.
Work on `Cc1cnn(C)c1-c1cc(Nc2ncc(C(F)(F)F)cc2F)ccc1OCCO` [Compound I-008] yielded a Ki [1, 4] of 0.338 nM and a Ki [2, 3] of 1.05 nM.
Work on `COCc1nc(C)c(-c2nc(Nc3ccc(C(F)(F)F)c(C)n3)c(F)cc2OCCO)c(C)n1` [Compound I-247] yielded a Ki [1, 4] of 1.74 nM and a Ki [2, 5] of 1.62 nM.
With `Cn1ncc(F)c1-c1cc(Nc2ncc(C(F)(F)F)cc2F)cnc1OCCO` [Compound I-127] the Ki [1, 4] was 0.271 nM.

— patent EP4631938A1, “NITROGEN-CONTAINING HETEROCYCLE WITH SEROTONIN RECEPTOR-BINDING ACTIVITY AND CARBOCYCLIC DERIVATIVE” (Shionogi & Co., Ltd, priority 2022, dated 2024)
